These are literature values, as cited in patent US11732223B2, “Solvent compositions for removing petroleum residue from a substrate and methods of use thereof” (priority 2004, dated 2023).

In the series the test system is rats.

Regarding `CCCCOCCOCCO` [butyl carbitol], the “oral LD50” value (oral, rats) is 6,560 mg/kg. Further, for the setting “rat, in vivo”, the “toxicity rating on the Hodge and Sterner scale” value is listed as 5.
